# Source: US4374136A, “Pyrimidine derivatives” (May & Baker Limited, priority 1980, dated 1983)
# Where two headings read alike, the source gives them in different places.
# Legend:
# [1] = tested on: Plasmodium berghei (strain N30); assay: Antimalarial activity in mice, Plasmodium berghei strain N30, oral daily for 4 days; type: in vivo; details: for Number of mice cured: 24 mice tested; for ED50: Plasmodium berghei, 504 h, read-out: CD50 (dose required to cure 50% of mice tested)
# Description: (§1) (a) The test compounds were tested in mice, against Plasmodium yoelii nigeriensis (strain N67), which is sensitive to pyrimethamine, and against a strain of Plasmodium yoelii nigeriensis [strain PR (derived from strain N67)] which is resistant to pyrimethamine, and also against pyrimethamine sensitive Plasmodium berghei (strain N30).
# (§2) In the experiments, the mice were each infected intraperitoneally with about 10^6 trophozoites. The test compound was administered orally daily for 4 days, beginning on the day of infection, and peripheral blood smears of the mice were observed 2 or 3 times per week for a total of 21 days. The numbers of mice cured were counted and the dose required to cure 50% of mice tested (CD50) was calculated.
# dogs = assay: Toxicity in dogs, oral; type: in vivo
# [2] = tested on: Plasmodium yoelii nigeriensis (strain N67); assay: Antimalarial activity in mice, Plasmodium yoelii nigeriensis strain N67, oral daily for 4 days; type: in vivo; details: for ED50: Plasmodium yoelii, 504 h, read-out: CD50 (dose required to cure 50% of mice tested)
# Description: as §1, §2
# malaria = assay: Comparative activity against malaria (general statement); type: in vivo
# Source text: The properties of the compound of formula III are illustrated by the following laboratory tests.
# [3] = tested on: Plasmodium yoelii nigeriensis (strain N67); assay: Single oral dose antimalarial test in mice infected with strain N67; type: in vivo, Plasmodium yoelii nigeriensis; mice; details: for ED50: Plasmodium yoelii
# Description: (b) Mice were each infected intraperitoneally with about 10^6 trophozoites of strain N67 of Plasmodium yoelii nigeriensis. […] The numbers of mice cured were counted and the dose required to cure 50% of mice tested (CD50) was calculated.
# The results obtained are shown below in Table II, in comparison with a test using pyrimethamine against the same organism.
# [4] = tested on: Plasmodium yoelii nigeriensis (strain PR); assay: Antimalarial activity in mice, pyrimethamine-resistant Plasmodium yoelii nigeriensis strain PR, oral daily for 4 days; type: in vivo; details: for Number of mice cured: PR; for ED50: Plasmodium yoelii, 504 h, strain PR, oral daily for 4 days from day of infection, 21 days observation, read-out: CD50 (dose required to cure 50% of mice tested)
# Description: as §1, §2
# mice = assay: Acute oral toxicity in mice; type: in vivo; details: 5 mice tested
# Description: (§3) Mice were treated with a single dose of the compound of formula III by the oral route, and were observed until all survivors had appeared to be healthy for 3 consecutive days. The LD50 dose (dose required to kill 50% of the mice tested) was then calculated.
# (§4) In a similar test on reference compound RCA an oral dose of 1000 mg/kg killed 2 out of 5 mice, giving an LD50 figure of […].
# [5] = Acute oral toxicity in mice; type: in vivo; details: mouse, in vivo; single oral dose, mice; read-out: LD50 (dose required to kill 50% of the mice tested)
# Description: as §3, §4
# [6] = 504 h, one single oral dose 48 hours after infection, strain N67, read-out: CD50 (dose required to cure 50% of mice tested)
compound,measurement,setting,value
"Cc1nc(N)nc(N)c1OCCCOc1ccc(-c2ccc(Cl)cc2)cc1 [compound of formula III, 2,4-diamino-5-[3-{4-(4-chlorophenyl)phenoxy}propoxy]-6-methylpyrimidine]",Number of mice cured,"[1]; N30, daily dose 0.125 mg/kg",0 mice
same,Number of mice cured,"[1]; N30, daily dose 0.5 mg/kg",14 mice
same,Number of mice cured,"[1]; N30, daily dose 2.0 mg/kg",24 mice
same,ED50,"[1]; strain N30, oral daily for 4 days from day of infection, 21 days observation",0.45 mg/kg
same,Number of dogs in which clinically well-tolerated,"dogs; 15 mg/kg/day (highest dosage), 6 dogs",5 dogs
same,Clinical tolerance in dogs,"dogs; oral gelatin capsules, one month, 1, 3 and 9 mg/kg/day",clinically well-tolerated
same,Toxicity in dogs in comparison,dogs; versus reference compound RCA,much less toxic in dogs than reference compound RCA
same,Number of mice cured,"[2]; N67, daily dose 0.125 mg/kg, 32 mice tested",2 mice
same,Number of mice cured,"[2]; N67, daily dose 0.5 mg/kg, 32 mice tested",28 mice
same,Number of mice cured,"[2]; N67, daily dose 2.0 mg/kg, 31 mice tested",31 mice
same,ED50,"[2]; strain N67, oral daily for 4 days from day of infection, 21 days observation",0.3 mg/kg
same,Antimalarial activity in comparison,"malaria; sensitive and resistant strains of malaria, versus reference compound RCA",very much more active than reference compound RCA
same,ED50,[3]; [6],3.5 mg/kg
same,Number of mice cured,"[3]; single dose 0.2 mg/kg, 48 hours after infection, 8 mice tested",0 mice
same,Number of mice cured,"[3]; single dose 2.0 mg/kg, 48 hours after infection, 8 mice tested",1 mice
same,Number of mice cured,"[3]; single dose 20.0 mg/kg, 48 hours after infection, 8 mice tested",8 mice
same,Number of mice cured,"[4]; daily dose 0.2 mg/kg, 16 mice tested",0 mice
same,Number of mice cured,"[4]; daily dose 2.0 mg/kg, 16 mice tested",3 mice
same,Number of mice cured,"[4]; daily dose 20.0 mg/kg, 15 mice tested",15 mice
same,ED50,[4],3 mg/kg
same,Number of mice killed,mice; 500 mg/kg oral,0 mice
same,Number of mice killed,mice; 1000 mg/kg oral,3 mice
same,LD50,[5],~1000 mg/kg
"CCc1nc(N)nc(N)c1-c1ccc(Cl)cc1 [pyrimethamine, 2,4-diamino-5-(4-chlorophenyl)-6-ethylpyrimidine]",ED50,[3]; [6],> 50 mg/kg
same,Number of mice cured,"[3]; dose 5.0 mg/kg, 8 mice tested",0 mice
same,Number of mice cured,"[3]; dose 50.0 mg/kg (maximum tolerated dose), 8 mice tested",0 mice
"Cc1nc(N)nc(N)c1OCCCOc1ccc(Cl)cc1C1CCCCC1 [reference compound RCA, 2,4-diamino-6-methyl-5-[3-(4-chloro-2-cyclohexylphenoxy)propoxy]pyrimidine, reference compound]",Number of mice cured,"[1]; N30, daily dose 1 mg/kg",0 mice
same,Number of mice cured,"[1]; N30, daily dose 10 mg/kg",5 mice
same,Number of mice cured,"[1]; N30, daily dose 100 mg/kg",24 mice
same,ED50,[1]; po,15 mg/kg
same,Deaths in dogs,dogs; doses higher than 3 mg/kg/day,deaths occurring at higher doses
same,Clinical tolerance in dogs,dogs; even at doses of 3 mg/kg/day,clinically badly tolerated
same,Number of mice cured,"[2]; N67, daily dose 1 mg/kg, 32 mice tested",2 mice
same,Number of mice cured,"[2]; N67, daily dose 5 mg/kg, 32 mice tested",17 mice
same,Number of mice cured,"[2]; N67, daily dose 25 mg/kg, 31 mice tested",31 mice
same,ED50,[2]; po,5 mg/kg
same,Activity against malaria relative to any of the other 34 compounds of B.P. 1546937 tested,malaria; fold as active,at least 4 times
same,ED50,"[3]; po, 24 h, read-out: CD50",> 200 mg/kg
same,Number of mice cured,"[3]; oral dose 200 mg/kg, 24 hours after infection, 8 mice",2 mice
same,Number of mice cured,"[4]; daily dose 10 mg/kg, 32 mice tested",0 mice
same,Number of mice cured,"[4]; daily dose 100 mg/kg, 32 mice tested",32 mice
same,ED50,[4],30 mg/kg
same,Number of mice killed,mice; 1000 mg/kg oral,2 mice
same,LD50,[5],~1000 mg/kg
